# Measured values from patent publication US7771935B2, “Evolving new molecular function” (President and Fellows of Harvard College, priority 2002, dated 2010).
# Legend:
# [1] = Bromide structural and configurational stability under the reaction conditions (MALDI-TOF, chiral HPLC); assay type: physicochemical; conditions: 16 hours under the reaction conditions; both enantiomers
# Taq DNA polymerase [2] = target: T1, Taq DNA polymerase (Thermus aquaticus, UniProt P19821); experiment: PCR incorporation of modified nucleotide triphosphates by Taq DNA polymerase; assay type: biochemical; conditions: 30 PCR cycles; pUC19 template; three natural dNTPs
# Procedure: The ability of the modified nucleotide triphosphates containing metal-binding functionality shown in FIG. 75 to be accepted by DNA polymerase enzymes was studied. Synthetic nucleotide triphosphates were purified by ion exchange and reverse-phase HPLC and were added to PCR reactions containing Taq DNA polymerase, three natural deoxynucleotide triphosphates, pUC19 template DNA, and two DNA primers. The primers were chosen to generate PCR products ranging from 50 to 200 base pairs in length. Control PCR reactions contained the four natural deoxynucleotide triphosphates and no non-natural nucleotides.
# Vent DNA polymerase = Vent DNA polymerase (Thermococcus litoralis, UniProt P30317, DEL1082-1471/DEL495-1032); conditions: PCR conditions; cited from earlier work
# Taq DNA polymerase [3] = target: T1, Taq DNA polymerase; conditions: cited from earlier work
# chymotrypsin = target: T2, chymotrypsin (Bos taurus, UniProt P00766, DEL14-15/DEL147-148); conditions: known binding of the free ligand; cited from earlier work
# T2 construct: purchased Sigma
# papain = target: T3, papain (Carica papaya, UniProt P00784); conditions: known binding of the free ligand; cited from earlier work
# T3 construct: purchased Sigma
# T3 sequence (P00784 134-345): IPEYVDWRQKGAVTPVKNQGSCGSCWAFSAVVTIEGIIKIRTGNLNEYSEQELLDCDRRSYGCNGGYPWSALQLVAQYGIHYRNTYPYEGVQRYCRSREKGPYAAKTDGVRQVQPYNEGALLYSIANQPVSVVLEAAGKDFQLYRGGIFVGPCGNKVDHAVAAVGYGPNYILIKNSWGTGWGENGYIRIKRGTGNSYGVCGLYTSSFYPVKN
# [4] = target: glutathione S-transferase (GST); conditions: read-out: Kd of binding to glutathione S-transferase (GST); cited from earlier work
# T1 sequence (P19821 whole entry): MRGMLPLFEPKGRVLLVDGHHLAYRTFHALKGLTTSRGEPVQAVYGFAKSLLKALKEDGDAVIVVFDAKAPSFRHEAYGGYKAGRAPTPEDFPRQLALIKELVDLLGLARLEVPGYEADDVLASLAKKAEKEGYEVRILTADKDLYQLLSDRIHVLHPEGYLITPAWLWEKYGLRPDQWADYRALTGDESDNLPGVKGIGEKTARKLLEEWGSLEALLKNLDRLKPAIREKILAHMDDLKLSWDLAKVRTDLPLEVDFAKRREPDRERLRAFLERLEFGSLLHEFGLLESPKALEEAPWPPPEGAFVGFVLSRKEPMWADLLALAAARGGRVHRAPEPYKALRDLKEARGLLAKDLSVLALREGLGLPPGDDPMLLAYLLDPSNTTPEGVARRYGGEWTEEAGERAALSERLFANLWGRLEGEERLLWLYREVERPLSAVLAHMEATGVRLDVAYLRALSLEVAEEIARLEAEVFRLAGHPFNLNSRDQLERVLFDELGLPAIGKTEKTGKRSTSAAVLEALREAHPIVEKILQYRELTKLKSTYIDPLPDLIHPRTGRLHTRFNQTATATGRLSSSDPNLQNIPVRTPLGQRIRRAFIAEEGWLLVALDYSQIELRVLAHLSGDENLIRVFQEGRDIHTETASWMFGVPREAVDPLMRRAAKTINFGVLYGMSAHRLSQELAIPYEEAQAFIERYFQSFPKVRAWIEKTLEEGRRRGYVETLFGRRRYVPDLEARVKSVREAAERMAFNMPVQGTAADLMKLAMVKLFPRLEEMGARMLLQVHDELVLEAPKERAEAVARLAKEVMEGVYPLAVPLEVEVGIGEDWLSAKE
# Chain of Vent DNA polymerase (P30317 other isoform, or with tags, fused parts or gaps DEL495-1032/DEL1082-1471): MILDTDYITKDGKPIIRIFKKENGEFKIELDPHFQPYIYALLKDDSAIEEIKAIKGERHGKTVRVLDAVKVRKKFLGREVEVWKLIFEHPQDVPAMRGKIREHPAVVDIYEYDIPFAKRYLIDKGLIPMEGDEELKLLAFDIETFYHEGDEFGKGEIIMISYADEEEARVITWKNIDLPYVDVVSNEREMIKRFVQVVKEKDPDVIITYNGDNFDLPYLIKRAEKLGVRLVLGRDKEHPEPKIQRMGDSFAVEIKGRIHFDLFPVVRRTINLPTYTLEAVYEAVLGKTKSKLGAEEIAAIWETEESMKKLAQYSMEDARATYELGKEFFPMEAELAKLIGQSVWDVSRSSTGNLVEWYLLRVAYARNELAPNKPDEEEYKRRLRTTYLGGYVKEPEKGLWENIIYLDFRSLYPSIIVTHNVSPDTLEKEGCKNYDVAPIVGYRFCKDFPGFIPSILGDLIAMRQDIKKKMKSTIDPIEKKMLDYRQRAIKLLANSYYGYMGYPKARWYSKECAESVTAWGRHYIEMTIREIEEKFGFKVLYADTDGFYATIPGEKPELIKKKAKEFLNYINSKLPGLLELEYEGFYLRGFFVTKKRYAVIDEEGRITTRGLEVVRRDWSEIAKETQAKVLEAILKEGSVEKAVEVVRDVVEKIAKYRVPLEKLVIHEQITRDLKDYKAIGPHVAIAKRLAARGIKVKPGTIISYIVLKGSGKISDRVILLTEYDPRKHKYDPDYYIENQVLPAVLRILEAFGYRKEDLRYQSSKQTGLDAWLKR
Structure (SMILES),incorporation by Taq DNA polymerase (Taq DNA polymerase [2]),acceptance by Taq DNA polymerase (Taq DNA polymerase [3]),also measured
CNC(=O)C(C)Br (racemic) [N-methyl 2-bromopropionamide],–,–,configurational stability by chiral HPLC [1]: No change in retention time
Cc1nc2c(N)ncnc2n1C1CC(O)C(COP(=O)(O)OP(=O)(O)OP(=O)(O)O)O1 (stereo not drawn) [8-modified adenosine triphosphate 32],not accepted,–,–
CCc1nc2c(N)ncnc2n1C1CC(O)C(COP(=O)(O)OP(=O)(O)OP(=O)(O)O)O1 (stereo not drawn) [8-modified adenosine triphosphate 33],not accepted,–,–
"CCCC#Cc1cn([C@H]2C[C@H](O)[C@@H](CO)O2)c(=O)[nH]c1=O [analog 1, 5-(1-pentynyl)-deoxyuridine]",–,–,acceptance by Vent DNA polymerase (Vent DNA polymerase): acceptance
NCCCc1cn(C2CC(O)C(CO)O2)c2ncnc(N)c12 (stereo not drawn) [analog 11],–,acceptance,–
NCC=Cc1cn(C2CC(O)C(CO)O2)c2ncnc(N)c12 (stereo not drawn) [analog 12],–,acceptance,–
O=C(O)CCCC[C@@H]1SC[C@@H]2NC(=O)N[C@@H]21 [biotin],–,–,affinity for chymotrypsin (chymotrypsin): no significant affinity
CC(C)C[C@H](NC(=O)[C@@H](NC(=O)N[C@@H](Cc1ccccc1)C(=O)O)[C@@H]1CCN=C(N)N1)C(=O)N[C@H](C=O)Cc1ccccc1 [chymostatin],–,–,affinity for chymotrypsin (chymotrypsin): binds to both proteases; affinity for papain (papain): binds to both proteases
NC(=O)CNC(=O)[C@H](CS)NC(=O)CC[C@H](N)C(=O)O [glutathione amide],–,–,Kd [4]: ~10 µM
"NCC#Cc1cn([C@H]2C[C@H](O)[C@@H](CO)O2)c2ncnc(N)c12 [uridine analog 13, 7-aminopropynyl-7-deazadeoxyadenosine]",efficiently incorporated,acceptance,–
